Here are results for 1 molecule from patent US11058636B2, “Dispersion process of adapalene in a gel preparation” (ZHAOKE (GUANGZHOU) OPHTHALMIC DRUG COMPANY LIMITED, priority 2017, dated 2021).

Like-named read-outs stand apart in the source and are kept apart here.

Series [1] in a line: Particle size of pulverized adapalene raw material, laser particle size analyzer, dry detection. The class given is physicochemical. To be noted: raw material after jet-mill pulverization, dry method detection (Example 3). An excerpt: Method: Taking the appropriate amount of this product, using Malvern MS3000 laser particle size analyzer, dry detection, D50 should not greater than 10 μm, D90 should not greater than 30 um.
After pulverization the raw materials of adapalene was subjected to dry method detection and D50 was found not more than 10 um, D90 was found not more than 30 um. Adapalene was pulverized using a jet mill to achieve the target particle size.

For series [2] the following is noted: cited from earlier work.
In another series the target is T1, RARPβ (Homo sapiens, UniProt P10826).
T1 sequence (P10826 1-455): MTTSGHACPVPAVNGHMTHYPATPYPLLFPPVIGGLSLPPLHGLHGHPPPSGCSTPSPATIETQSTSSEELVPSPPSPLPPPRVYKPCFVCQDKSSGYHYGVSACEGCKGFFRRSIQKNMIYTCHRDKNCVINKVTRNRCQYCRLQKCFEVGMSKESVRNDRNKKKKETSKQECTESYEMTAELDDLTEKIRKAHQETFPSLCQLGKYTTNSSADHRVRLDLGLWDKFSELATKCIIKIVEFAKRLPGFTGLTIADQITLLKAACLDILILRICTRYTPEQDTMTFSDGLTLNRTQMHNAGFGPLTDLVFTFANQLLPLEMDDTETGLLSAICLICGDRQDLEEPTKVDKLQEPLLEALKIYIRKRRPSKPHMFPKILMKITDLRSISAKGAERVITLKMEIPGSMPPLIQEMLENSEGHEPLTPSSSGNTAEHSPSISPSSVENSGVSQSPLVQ
Particulars: cited from earlier work.

Another series has as its target T2, RARγ (Homo sapiens, UniProt P13631).
T2 sequence (P13631 1-454): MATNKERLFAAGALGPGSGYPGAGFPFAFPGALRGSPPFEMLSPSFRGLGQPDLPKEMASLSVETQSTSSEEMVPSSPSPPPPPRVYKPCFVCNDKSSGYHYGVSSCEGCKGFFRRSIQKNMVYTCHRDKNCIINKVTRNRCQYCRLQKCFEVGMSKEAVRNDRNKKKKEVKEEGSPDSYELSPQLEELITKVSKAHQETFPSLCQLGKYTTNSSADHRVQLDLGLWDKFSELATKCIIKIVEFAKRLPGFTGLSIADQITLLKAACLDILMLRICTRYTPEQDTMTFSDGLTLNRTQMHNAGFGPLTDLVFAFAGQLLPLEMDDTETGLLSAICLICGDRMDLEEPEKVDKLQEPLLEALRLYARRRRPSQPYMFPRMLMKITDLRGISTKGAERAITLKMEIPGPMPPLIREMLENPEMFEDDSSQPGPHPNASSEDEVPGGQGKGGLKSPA
To be noted: cited from earlier work.

The next series deals with T3, RARα (Homo sapiens, UniProt P10276).
T3 sequence (P10276 1-462): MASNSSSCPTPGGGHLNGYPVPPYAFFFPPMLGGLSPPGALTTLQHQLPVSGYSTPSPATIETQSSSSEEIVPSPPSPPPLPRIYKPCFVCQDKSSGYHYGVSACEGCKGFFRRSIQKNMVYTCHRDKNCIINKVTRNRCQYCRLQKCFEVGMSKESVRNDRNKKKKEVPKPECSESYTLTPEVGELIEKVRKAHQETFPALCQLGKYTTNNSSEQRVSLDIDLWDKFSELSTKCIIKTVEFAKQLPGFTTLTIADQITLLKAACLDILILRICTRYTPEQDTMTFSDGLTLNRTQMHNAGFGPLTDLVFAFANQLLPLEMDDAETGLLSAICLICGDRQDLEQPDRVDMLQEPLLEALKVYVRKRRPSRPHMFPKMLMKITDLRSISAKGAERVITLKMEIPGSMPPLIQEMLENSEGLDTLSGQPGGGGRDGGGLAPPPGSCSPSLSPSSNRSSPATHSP
Particulars: cited from earlier work.

In series [3] the test system is glutamine invertase of keratinocytes. Particulars: in vitro; cited from earlier work.
For the next series, the system named is acne. Particulars: animals; cited from earlier work.

`COc1ccc(-c2ccc3cc(C(=O)O)ccc3c2)cc1C12CC3CC(CC(C3)C1)C2` [Adapalene, 6-[3-(1-adamantyl)-4-methoxyphenyl]-2-naphthoic acid]: the D50 entry in series [1] is “not more than 10 um”. Moreover, the D90 entry in series [1] was “not more than 30 um”. Further, the solubility entry is reported as “insoluble” in series [2] (in ethanol), “slightly soluble” in series [2] (in tetrahydrofuran) and “insoluble” in series [2] (in water). In addition, the “binding to RARPβ” value at RARPβ is “mainly binds”. In addition, at RARγ, the “binding to RARγ” value is “mainly binds”. In addition, at RARα, the “binding to RARα” value was “weak binding”. Moreover, the “inhibition of glutamine invertase of keratinocytes” value in series [3] is listed as “inhibits”. In addition, the “effects in animal experiments” value in the series with acne was “acne dissolution and local anti-inflammatory effects”.
